Data published in BindingDB's records for doi:10.1021/jm500308c (University Jena, 2014).

What was measured:
[1] = target: Signal transducer and activator of transcription 3 (Homo sapiens, UniProt P40763); experiment: Inhibition of STAT3 transcriptional activity in human HaCaT cells after 6 hrs by luciferase reporter gene assay
[2] = target: T1, Nuclear factor erythroid 2-related factor 2 (Homo sapiens, UniProt Q16236); experiment: Activation of Nrf2 transcriptional activity in human LNCaP cells after 6 hrs by luciferase reporter gene assay relative to tert-butylhydroquinone
T1 sequence (Q16236 whole entry): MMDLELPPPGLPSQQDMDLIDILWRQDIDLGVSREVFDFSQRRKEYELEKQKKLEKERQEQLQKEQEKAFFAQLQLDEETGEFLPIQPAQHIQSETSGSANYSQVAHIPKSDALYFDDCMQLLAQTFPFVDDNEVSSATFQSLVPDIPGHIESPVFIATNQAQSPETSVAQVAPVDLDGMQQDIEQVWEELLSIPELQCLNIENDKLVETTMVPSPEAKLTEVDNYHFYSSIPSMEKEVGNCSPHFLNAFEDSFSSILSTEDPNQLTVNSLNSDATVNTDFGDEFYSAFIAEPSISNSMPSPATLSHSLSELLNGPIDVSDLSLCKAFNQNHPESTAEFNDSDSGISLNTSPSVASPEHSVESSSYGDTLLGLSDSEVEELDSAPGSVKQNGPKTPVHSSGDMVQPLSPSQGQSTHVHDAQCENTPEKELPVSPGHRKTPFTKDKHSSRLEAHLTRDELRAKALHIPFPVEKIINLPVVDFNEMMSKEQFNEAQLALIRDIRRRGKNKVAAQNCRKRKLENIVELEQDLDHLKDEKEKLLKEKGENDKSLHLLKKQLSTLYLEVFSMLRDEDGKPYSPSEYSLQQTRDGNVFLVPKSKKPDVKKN

Chain of Signal transducer and activator of transcription 3 (P40763 whole entry): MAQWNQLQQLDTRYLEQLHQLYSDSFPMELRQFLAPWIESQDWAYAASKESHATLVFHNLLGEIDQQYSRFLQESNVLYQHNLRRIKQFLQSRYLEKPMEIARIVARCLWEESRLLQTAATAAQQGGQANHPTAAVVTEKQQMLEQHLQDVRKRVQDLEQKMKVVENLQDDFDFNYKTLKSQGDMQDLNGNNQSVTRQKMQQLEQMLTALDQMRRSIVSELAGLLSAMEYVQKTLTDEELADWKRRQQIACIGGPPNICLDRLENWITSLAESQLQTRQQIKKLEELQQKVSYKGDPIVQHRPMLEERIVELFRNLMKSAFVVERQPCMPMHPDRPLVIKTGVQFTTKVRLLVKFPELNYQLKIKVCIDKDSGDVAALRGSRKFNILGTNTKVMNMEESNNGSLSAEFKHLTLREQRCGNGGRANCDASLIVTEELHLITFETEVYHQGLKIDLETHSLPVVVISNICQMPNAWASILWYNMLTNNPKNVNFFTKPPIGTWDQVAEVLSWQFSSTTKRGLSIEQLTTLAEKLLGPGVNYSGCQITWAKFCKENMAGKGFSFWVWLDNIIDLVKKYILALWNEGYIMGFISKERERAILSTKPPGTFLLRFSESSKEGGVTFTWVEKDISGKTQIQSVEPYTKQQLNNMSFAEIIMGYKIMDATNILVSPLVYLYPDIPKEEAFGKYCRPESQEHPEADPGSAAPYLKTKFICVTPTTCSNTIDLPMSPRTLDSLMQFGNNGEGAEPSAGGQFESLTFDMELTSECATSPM

| SMILES | IC50 [1] | EC50 [2] |
| --- | --- | --- |
| COc1cc(CCC(=O)CC(=O)CCc2ccc(O)c(OC)c2)ccc1O [1,7-Bis-(4-hydroxy-3-methoxy-phenyl)-heptane-3,5-dione] | > 50 µM | – |
| COc1cc(/C=C/c2cc(-c3ccc(O)c(OC)c3)[nH]n2)ccc1O | 18.2 µM | – |
| COc1cc(/C=C/c2cc(/C=C/c3ccc(O)c(OC)c3)[nH]n2)ccc1O [4-(2-(5-(4-hydroxy-3-methoxystyryl)-1H-pyrazol-3-yl)vinyl)-2-methoxyphenol] | 16.2 µM | – |
| COc1cc(/C=C/C(=O)/C=C/c2cc(CC=C(C)C)c(O)c(OC)c2)cc(CC=C(C)C)c1O | 22.4 µM | – |
| COc1cc(/C=C/C(=O)CC(=O)c2ccc(O)c(OC)c2)ccc1O | 35.7 µM | – |
| COc1cc(/C=C/C(=O)/C=C/c2ccc(O)c(OC)c2)ccc1O [(1E,4E)-1,5-Bis-(4-hydroxy-3-methoxy-phenyl)-penta-1,4-dien-3-one] | 6 µM | 0.9 µM |
| COc1cc(/C=C/c2cc(/C=C/c3cc(CC=C(C)C)c(O)c(OC)c3)[nH]n2)cc(CC=C(C)C)c1O | > 50 µM | – |
| COc1cc(/C=C/C(=O)/C=C/c2cc(F)c(O)c(OC)c2)cc(F)c1O | 19.4 µM | 3.1 µM |
| COc1cc(C=CC(=O)CC(=O)C=Cc2ccc(O)c(OC)c2)ccc1O | – | 9.9 µM |
| COc1cc(/C=C/C(=O)CC(=O)/C=C/c2cc(F)c(O)c(OC)c2)cc(F)c1O | 15.6 µM | 8.6 µM |
| COc1cc(/C=C/C(=O)CC(=O)/C=C/c2cc(CC=C(C)C)c(O)c(OC)c2)cc(CC=C(C)C)c1O | > 50 µM | – |
| COc1cc(CCC(=O)CC(=O)CCc2cc(CCC(C)C)c(O)c(OC)c2)cc(CCC(C)C)c1O | > 50 µM | – |
